Results from PMC5183552 (Neuropharmacology, 2016).
Where two headings read alike, the source gives them in different places.

Legend:
[1] = target: T1, mouse A1AR (Mus musculus, UniProt Q60612); experiment: Radioligand binding, recombinant mouse A1AR in HEK-293 membranes
T1 sequence (Q60612 1-326): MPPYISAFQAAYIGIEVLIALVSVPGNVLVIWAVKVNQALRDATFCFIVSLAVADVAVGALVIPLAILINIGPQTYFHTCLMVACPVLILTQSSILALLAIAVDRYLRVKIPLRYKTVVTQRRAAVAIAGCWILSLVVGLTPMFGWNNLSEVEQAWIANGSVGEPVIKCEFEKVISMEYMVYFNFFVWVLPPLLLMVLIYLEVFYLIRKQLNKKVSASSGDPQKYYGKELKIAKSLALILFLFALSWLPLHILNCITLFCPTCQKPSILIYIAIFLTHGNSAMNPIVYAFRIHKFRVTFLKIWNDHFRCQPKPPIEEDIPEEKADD

[2] = target: T2, mouse A3AR (Mus musculus, UniProt Q61618); experiment: Radioligand binding, recombinant mouse A3AR in HEK-293 membranes
T2 sequence (Q61618 1-319): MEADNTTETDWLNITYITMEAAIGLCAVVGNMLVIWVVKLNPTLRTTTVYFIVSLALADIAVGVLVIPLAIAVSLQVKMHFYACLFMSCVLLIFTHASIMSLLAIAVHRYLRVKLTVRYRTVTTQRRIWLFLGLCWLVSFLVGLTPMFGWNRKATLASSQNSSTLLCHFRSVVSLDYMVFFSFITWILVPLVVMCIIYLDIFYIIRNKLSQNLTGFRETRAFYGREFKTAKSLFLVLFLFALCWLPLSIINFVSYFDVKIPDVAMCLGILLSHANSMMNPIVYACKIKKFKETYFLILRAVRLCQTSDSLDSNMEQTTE

[3] = test system: mice; experiment: Body temperature; format: in vivo, mouse
[4] = test system: mice; experiment: Indirect calorimetry; format: in vivo, mouse; settings: i.p.
[5] = test system: mice; experiment: Temperature gradient; format: in vivo, mouse
[6] = target: T3, Human A2AAR (Homo sapiens, UniProt P29274); settings: read-out: Ki, human A2AAR, cited from earlier work
T3 sequence (P29274 whole entry): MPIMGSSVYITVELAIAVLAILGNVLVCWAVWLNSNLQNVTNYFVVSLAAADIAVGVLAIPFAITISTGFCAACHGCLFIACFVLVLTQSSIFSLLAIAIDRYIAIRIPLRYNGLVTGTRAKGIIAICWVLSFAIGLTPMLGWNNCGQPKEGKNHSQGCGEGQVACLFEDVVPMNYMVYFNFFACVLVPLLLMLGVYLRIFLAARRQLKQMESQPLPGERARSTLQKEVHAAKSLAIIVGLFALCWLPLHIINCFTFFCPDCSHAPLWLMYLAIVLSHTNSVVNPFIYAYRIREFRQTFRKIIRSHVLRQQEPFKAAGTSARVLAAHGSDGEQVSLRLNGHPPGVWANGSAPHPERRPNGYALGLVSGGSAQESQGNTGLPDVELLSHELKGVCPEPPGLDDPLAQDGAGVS

[7] = target: T4, Human A3AR (Homo sapiens, UniProt P0DMS8); settings: read-out: Ki, human A3AR; ref Franchetti et al, 2009; cited from earlier work
T4 sequence (P0DMS8 1-318): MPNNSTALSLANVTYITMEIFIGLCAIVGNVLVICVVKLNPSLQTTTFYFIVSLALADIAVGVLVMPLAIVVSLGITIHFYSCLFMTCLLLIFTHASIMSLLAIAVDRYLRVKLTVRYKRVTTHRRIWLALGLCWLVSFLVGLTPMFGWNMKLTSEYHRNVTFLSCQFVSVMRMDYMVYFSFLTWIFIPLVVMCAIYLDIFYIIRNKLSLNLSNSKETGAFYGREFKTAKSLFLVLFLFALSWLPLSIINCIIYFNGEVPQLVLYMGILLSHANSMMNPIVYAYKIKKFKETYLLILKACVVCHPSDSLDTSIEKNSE

[8] = test system: mouse; settings: 0.5 mg/kg, ref Luongo et al, 2012; cited from earlier work
[9] = 500–3500 mg/kg, i.p.; ref Zhang et al, 2006; cited from earlier work
[10] = target: T1, mouse A1AR; settings: read-out: Ki, mouse A1AR, cited from earlier work
[11] = target: T2, mouse A3AR; settings: cited from earlier work
[12] = target: T5, mouse A2AAR (Mus musculus, UniProt Q60613); settings: read-out: Ki, mouse A2AAR, 2006, cited from earlier work
T5 sequence (Q60613 whole entry): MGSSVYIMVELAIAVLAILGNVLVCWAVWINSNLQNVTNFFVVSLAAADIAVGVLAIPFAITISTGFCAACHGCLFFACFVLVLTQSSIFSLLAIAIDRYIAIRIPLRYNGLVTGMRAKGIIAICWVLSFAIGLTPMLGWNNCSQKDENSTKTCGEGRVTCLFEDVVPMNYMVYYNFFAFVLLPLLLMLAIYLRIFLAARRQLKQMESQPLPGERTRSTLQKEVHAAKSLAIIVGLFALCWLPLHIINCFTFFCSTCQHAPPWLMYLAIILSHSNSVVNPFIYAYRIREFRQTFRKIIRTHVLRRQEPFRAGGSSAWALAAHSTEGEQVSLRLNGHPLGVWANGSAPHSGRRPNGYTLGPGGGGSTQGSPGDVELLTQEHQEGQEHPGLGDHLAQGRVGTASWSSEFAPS

[13] = target: T5, mouse A2AAR; experiment: Radioligand binding, recombinant mouse A2AAR in HEK-293 membranes; settings: read-out: % inhibition at 10 µM, mouse A2AAR
[14] = target: T6, Human A1AR (Homo sapiens, UniProt P30542); experiment: Ligand binding affinity at human A1AR
T6 sequence (P30542 1-326): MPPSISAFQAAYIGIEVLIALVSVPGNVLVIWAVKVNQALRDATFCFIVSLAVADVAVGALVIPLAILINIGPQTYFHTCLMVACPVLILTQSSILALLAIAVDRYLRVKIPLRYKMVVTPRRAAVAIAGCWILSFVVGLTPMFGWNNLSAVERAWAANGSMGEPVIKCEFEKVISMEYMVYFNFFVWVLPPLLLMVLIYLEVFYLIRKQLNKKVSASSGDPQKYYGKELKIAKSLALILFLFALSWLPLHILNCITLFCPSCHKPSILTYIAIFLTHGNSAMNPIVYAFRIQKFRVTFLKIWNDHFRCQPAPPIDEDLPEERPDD

[15] = target: T3, Human A2AAR; experiment: Ligand binding affinity at human A2AAR
[16] = target: T4, Human A3AR; experiment: Ligand binding affinity at human A3AR
[17] = 3 mg/kg, i.p., raclopride 1 mg/kg, data not shown
[18] = C57BL/6J mice, 0.3–10 mg/kg, i.p.
[19] = Adora3−/− mice, 3 mg/kg, before the Tb nadir
[20] = C57BL/6J mice, 100 µg/mouse (~3.3 mg/kg), i.c.v.
[21] = C57BL/6J mice, 0.02–0.2 mg/kg, i.p., dose-dependent
[22] = C57BL/6J mice, 0.03–3 mg/kg, i.p.

## O[C@@H]1[C@H](O)[C@@H](CCl)O[C@H]1n1cnc2c(NC3CC4CCC3C4)ncnc21 (mixture of isomers) [Cl-ENBA, (±)-5'-chloro-5'-deoxy-N^6-endo-norbornyladenosine]
[1]; read-out: Ki, mouse A1AR, current results, ±SEM
  Ki: 0.2 ± 0.01 nM
[2]; read-out: Ki, mouse A3AR, current results, ±SEM
  Ki: 2410 ± 325 nM
[3]; 15 µg/mouse, i.c.v.
  Effect of i.c.v. dosing on Tb in Adora1−/− mice: greatly diminished
[3]; 1 mg/kg, i.p.
  Hypothermia in mast cell-deficient Kit W-sh/W-sh mice: largely intact
[3]; 3 mg/kg, i.p.
  Hypothermia in Adora1−/− mice vs wild type: largely abolished
  Hypothermia in Adora1−/−;Adora3−/− mice: completely lost
  Hypothermia in Adora3−/− mice vs wild type: remained present
  Hypothermia in mast cell-deficient Kit W-sh/W-sh mice: significantly attenuated
[3]; [17]
  Hypothermia after pretreatment with raclopride: not affected
[3]; [18]
  Effect on Tb: dose-dependent hypothermia
  Effect on physical activity: hypoactivity
[4]; Adora3−/− mice, 3 mg/kg
  Time of TEE nadir: ~ 50 min
  Time of Tb nadir: ~ 100 min
[4]; [19]
  Effect on metabolic rate (total energy expenditure): reduced metabolic rate
  Effect on physical activity: reduced
[5]; Adora3−/− mice, 3 mg/kg, i.p.
  Environmental temperature preference in thermal gradient: modest preference for a cooler place
[6]; ref Franchetti et al, 2009
  Ki: 1340 nM
[7]
  Ki: 1290 nM
[8]
  Anti-nociceptive effect: anti-nociceptive

## Nc1ncnc2c1ncn2[C@@H]1O[C@H](COP(=O)(O)O)[C@@H](O)[C@H]1O [AMP, adenosine 5'-monophosphate]
[3]; 100 µg/mouse (~3.3 mg/kg), i.c.v.
  Hypothermia from i.c.v. dosing in Adora1−/− mice: not attenuated
[3]; 100 mg/kg, i.p.
  Hypothermia in Adora1−/− mice: intact
  Hypothermia in Adora1−/−;Adora3−/− double knockout mice: intact
  Hypothermia in Adora3−/− mice: intact
  Hypothermia in Kit W-sh/W-sh mice: partially intact
[3]; AMP 100 mg/kg, i.p., raclopride 2 mg/kg, data not shown
  Hypothermia after pretreatment with raclopride: did not block
[3]; Adora1−/− mice, AMP 100 mg/kg, i.p., pyrilamine 10 mg/kg, data not shown
  Hypothermia after pretreatment with pyrilamine: did not ablate
[3]; [20]
  Effect on Tb, i.c.v. infusion: drop in Tb that was comparable to a 30-fold larger (100 mg/kg) systemic dose
[4]; C57BL/6J mice, 100 mg/kg
  Effect on metabolic rate (total energy expenditure): drop in metabolic rate that preceded the hypothermia
  Time of TEE nadir: ~ 40 min
  Time of Tb nadir: ~ 60 min
[5]; 100 mg/kg, i.p., not shown
  Ambient temperature preference: did not observe a clear change
[5]; [20]
  Activity in thermal gradient: without a significant drop in activity
[5]; C57BL/6J mice, 300 mg/kg, i.p.
  Activity in thermal gradient: became immobile
  Position in thermal gradient: moved to a cooler region
[9]
  Torpor induction by large doses: induce torpor

## OC[C@H]1O[C@@H](n2cnc3c(NC4CCCC4)nc(Cl)nc32)[C@H](O)[C@@H]1O [CCPA, 2-chloro-N^6-cyclopentyladenosine]
[10]; ref Alnouri et al, 2015
  Ki: 0.27 nM
[11]; read-out: Ki, mouse A3AR, ref Alnouri et al, 2015
  Ki: 16 nM

## CCNC(=O)[C@H]1O[C@@H](n2cnc3c(N)nc(NCCc4ccc(CCC(=O)O)cc4)nc32)[C@H](O)[C@@H]1O [CGS21680]
[1]
  Ki: 193 ± 38 nM
[2]
  Ki: 48 ± 11 nM

## OC[C@H]1O[C@@H](n2cnc3c(NC4CCCCC4)ncnc32)[C@H](O)[C@@H]1O [CHA, N^6-cyclohexyladenosine]
[1]
  Ki: 2.15 ± 0.37 nM
[3]; 0.05 mg/kg, i.p.
  Hypothermia in Adora1−/− mice vs wild type: attenuated
  Hypothermia in Adora1−/−;Adora3−/− double knockout mice: completely lost
  Hypothermia in Adora3−/− mice vs wild type: attenuated
[3]; [21]
  Effect on Tb: drop in Tb
  Effect on duration of hypothermia: increase in duration of hypothermia
  Effect on physical activity: reduced physical activity

## OC[C@H]1O[C@@H](n2cnc3c(NC4CCCC4)ncnc32)[C@H](O)[C@@H]1O [CPA, N^6-cyclopentyladenosine]
[3]; 0.3 mg/kg, i.p.
  Hypothermia in Adora1−/− mice vs wild type: not significantly attenuated
  Hypothermia in Adora3−/− mice vs wild type: attenuated but still present
[3]; [22]
  Effect on Tb: dose-dependent (0.03–3 mg/kg, i.p.) hypothermia
  Effect on physical activity: reduction in physical activity

## CNC(=O)[C@H]1O[C@@H](n2cnc3c(NCc4cccc(I)c4)nc(Cl)nc32)[C@H](O)[C@@H]1O [Cl-IB-MECA, 2-chloro-N6-(3-iodobenzyl)adenosine-5'-N-methylcarboxamide]
[12]; ref Ge et al
  Ki: ~10000 nM

## CCCn1c(=O)c2[nH]c(C3CCCC3)nc2n(CCC)c1=O [DPCPX]
[10]; ref Kreckler et al, 2006
  Ki: 1.5 nM
[12]; ref Kreckler et al
  Ki: 598 nM
[11]; 10 µM, ref Kreckler et al, 2006
  % inhibition at 10 µM, mouse A3AR: 0%

## CNC(=O)[C@H]1O[C@@H](n2cnc3c(NCc4cccc(I)c4)ncnc32)[C@H](O)[C@@H]1O [IB-MECA]
[12]; ref Ge et al
  Ki: ~1000 nM

## O[C@@H]1[C@@H]2C[C@@H]2C(n2cnc3c(NC(C4CC4)C4CC4)nc(Cl)nc32)[C@@H]1O (stereo partly drawn) [MRS5474, (1R,2R,3S,5S)-4-(2-chloro-6-((dicyclopropylmethyl)amino)-9H-purin-9-yl)bicyclo[3.1.0]hexane-2,3-diol]
[3]; 3 mg/kg, i.p.
  Receptor mediating hypothermia (Adora1−/− and Adora3−/− mice): via A3AR, without a clear contribution from A1AR
[3]; [17]
  Hypothermia after pretreatment with raclopride: not inhibited
[3]; mice, doses in Fig. S2A,B
  Effect on Tb: dose-dependent hypothermia
[3]; mice, doses in Fig. S2A,B and data not shown
  Effect on physical activity: hypoactivity
[6]; ref Tosh et al, 2012b
  Ki: 3950 nM

## COc1ccc(CN(CCN(C)C)c2ccccn2)cc1 [Pyrilamine, pyrilamine]
[3]; MRS5474 at dose selective for A3AR, inhibitor dosed 15 min before agonist
  Effect of H1R antagonist on MRS5474-induced hypothermia: inhibited hypothermia
[3]; inhibitor dosed 15 min before agonist, Fig. S4A–D
  Effect of H1R antagonist on A1AR agonist-induced hypothermia: did not block

## O=S(=O)(O)c1ccc(Nc2ncnc3c2ncn3[C@@H]2O[C@H](CO)[C@@H](O)[C@H]2O)cc1 [SPA, N^6-(p-sulfo-phenyl)adenosine]
[1]
  Ki: 1.08 ± 0.04 nM
[1]; from Table 1 Ki values
  Selectivity for binding to mouse A1AR over A3AR: ~ 3000 fold
[13]
  inhibition at 10 µM: 33 ± 2%
[2]
  Ki: 3110 ± 183 nM
[14]
  Ki: 7.92 ± 1.55 nM
[15]
  Ki: 3780 ± 890 nM
[16]
  Ki: 246 ± 21 nM
